Laboratory results reported in ChEMBL document CHEMBL1201862, “PubChem BioAssay data set” (2004).
The source made the active and inactive calls.

Columns and labels:
P388/ADR = assay: cells; format: functional; settings: Mus musculus
SN12K1 = assay: cells; format: functional; settings: Homo sapiens
P388 = assay: cells; format: functional; settings: Mus musculus
[1] = target: T1, Carboxy-terminal domain RNA polymerase II polypeptide A small phosphatase 1 (Homo sapiens, UniProt Q9GZU7); assay: inhibitors of CTDSP1, concentration-response testing, biochemical assay, absorbance-based, actives from ultra-high-throughput screening (AID 540297); format: functional
T1 sequence (Q9GZU7 whole entry): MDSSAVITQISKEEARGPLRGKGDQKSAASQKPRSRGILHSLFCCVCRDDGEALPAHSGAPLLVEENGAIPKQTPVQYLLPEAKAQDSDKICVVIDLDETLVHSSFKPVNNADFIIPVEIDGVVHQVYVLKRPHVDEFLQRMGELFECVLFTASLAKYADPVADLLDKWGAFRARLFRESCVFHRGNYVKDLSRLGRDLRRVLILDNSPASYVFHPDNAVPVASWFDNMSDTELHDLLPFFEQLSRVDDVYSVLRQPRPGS

[2] = target: Induced myeloid leukemia cell differentiation protein Mcl-1 (Homo sapiens, UniProt Q07820); format: functional
Induced myeloid leukemia cell differentiation protein Mcl-1, sequence (Q07820 whole entry): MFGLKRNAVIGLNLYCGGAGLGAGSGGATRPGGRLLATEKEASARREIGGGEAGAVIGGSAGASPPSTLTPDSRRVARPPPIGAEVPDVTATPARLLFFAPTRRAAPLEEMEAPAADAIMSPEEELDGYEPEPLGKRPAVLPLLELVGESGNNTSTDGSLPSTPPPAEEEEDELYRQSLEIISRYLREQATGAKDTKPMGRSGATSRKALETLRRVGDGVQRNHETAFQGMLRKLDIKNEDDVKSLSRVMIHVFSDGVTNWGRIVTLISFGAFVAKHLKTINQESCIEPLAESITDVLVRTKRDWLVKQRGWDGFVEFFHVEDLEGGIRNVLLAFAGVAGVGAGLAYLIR

[3] = target: T2, High affinity choline transporter 1 (Homo sapiens, UniProt Q9GZV3); assay: CHT inhibitors, dose response, cell-based, 5-point CRC, membrane potential dye (AID 504840); format: functional
T2 sequence (Q9GZV3 whole entry): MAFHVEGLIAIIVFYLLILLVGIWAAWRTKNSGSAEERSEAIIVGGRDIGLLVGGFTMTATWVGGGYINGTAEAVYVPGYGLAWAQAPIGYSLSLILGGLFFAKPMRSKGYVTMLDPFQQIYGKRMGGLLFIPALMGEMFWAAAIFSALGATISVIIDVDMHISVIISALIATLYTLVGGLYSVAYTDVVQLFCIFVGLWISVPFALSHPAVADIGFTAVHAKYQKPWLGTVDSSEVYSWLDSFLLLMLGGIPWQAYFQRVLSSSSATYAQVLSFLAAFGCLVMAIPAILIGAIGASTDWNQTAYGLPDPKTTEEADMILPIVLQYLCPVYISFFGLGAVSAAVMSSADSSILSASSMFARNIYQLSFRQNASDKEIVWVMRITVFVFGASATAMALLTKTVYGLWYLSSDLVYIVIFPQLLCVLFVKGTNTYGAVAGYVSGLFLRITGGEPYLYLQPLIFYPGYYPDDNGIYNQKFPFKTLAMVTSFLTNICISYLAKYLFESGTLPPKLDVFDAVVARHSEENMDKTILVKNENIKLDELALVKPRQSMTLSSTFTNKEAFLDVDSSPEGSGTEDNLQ

[4] = target: T3, Calpain-2 catalytic subunit (Sus scrofa, UniProt P43367); assay: pig calpain II inhibitor potency, dose response, biochemical, fluorogenic peptide substrate (AID 1420); format: functional
T3 sequence (P43367 whole entry): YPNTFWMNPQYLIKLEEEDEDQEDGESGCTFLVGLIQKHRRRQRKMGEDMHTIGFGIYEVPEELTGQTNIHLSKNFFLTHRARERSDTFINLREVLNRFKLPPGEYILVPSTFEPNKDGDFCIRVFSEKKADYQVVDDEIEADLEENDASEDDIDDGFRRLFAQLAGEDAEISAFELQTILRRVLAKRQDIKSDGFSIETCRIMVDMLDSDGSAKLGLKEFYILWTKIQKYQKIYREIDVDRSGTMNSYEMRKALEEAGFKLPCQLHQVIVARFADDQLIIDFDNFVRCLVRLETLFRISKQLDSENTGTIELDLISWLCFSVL

Cytochrome P450 1A2 = target: T4, Cytochrome P450 1A2 (Homo sapiens, UniProt P05177);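 also: PubChem cytochrome P450 panel assay, CYP1A2 panel member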
T4 sequence (P05177 whole entry): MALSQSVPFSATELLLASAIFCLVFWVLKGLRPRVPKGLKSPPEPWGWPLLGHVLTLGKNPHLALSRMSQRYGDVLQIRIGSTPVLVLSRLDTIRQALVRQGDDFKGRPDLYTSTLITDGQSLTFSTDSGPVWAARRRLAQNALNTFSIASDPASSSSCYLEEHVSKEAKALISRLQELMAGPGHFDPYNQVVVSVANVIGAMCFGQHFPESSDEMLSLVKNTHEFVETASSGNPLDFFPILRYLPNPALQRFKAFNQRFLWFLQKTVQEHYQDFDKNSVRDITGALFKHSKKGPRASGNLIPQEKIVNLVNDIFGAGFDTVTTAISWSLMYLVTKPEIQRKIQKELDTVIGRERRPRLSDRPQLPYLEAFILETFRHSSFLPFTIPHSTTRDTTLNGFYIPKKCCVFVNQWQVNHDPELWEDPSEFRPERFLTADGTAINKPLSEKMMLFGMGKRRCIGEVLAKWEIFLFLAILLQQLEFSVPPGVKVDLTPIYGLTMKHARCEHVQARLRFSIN

Cytochrome P450 3A4 = Cytochrome P450 3A4 (Homo sapiens, UniProt P08684);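 also: CYP3A4 tested as one member of a cytochrome P450 panel screen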
Cytochrome P450 3A4, sequence (P08684 whole entry): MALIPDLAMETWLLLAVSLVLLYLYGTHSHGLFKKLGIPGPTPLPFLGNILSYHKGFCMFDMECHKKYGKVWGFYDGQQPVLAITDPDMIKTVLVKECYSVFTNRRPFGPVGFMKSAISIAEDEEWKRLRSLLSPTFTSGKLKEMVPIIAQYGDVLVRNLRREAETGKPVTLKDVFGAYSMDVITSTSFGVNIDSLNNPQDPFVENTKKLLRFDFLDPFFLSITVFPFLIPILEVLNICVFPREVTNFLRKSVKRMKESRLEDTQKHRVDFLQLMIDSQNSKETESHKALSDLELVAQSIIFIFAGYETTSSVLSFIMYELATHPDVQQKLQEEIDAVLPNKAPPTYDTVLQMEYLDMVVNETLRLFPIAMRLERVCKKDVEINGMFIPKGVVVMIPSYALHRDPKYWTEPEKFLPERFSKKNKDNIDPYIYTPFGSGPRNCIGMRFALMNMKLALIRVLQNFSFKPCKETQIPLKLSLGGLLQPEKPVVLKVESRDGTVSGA

[5] = microbe, parasite or virus in culture; format: functional; settings: Mycobacterium tuberculosis
[6] = HEp-2 cell cytotoxicity, dose response, cytotoxicity control for RSV inhibitor project, HTS (AID 2410); format: functional; settings: human respiratory syncytial virus
[7] = growth suppression of PTEN-null colon cells, dose response, cell-based, HCT116 PTEN knockout (AID 1047); format: functional;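 also: HCT116 colon tumor cells with PTEN knocked out; cells exposed to compound for 60 hours before readout; potency for loss of cell viability measured by luminescence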
[8] = growth suppression of beta-catenin-knockout colon cells, dose response, cell-based, HCT116, human colon tumor (AID 1045); format: functional;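 also: HCT116 colon tumor cells with beta catenin knocked out; cells exposed to compound for 60 hours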
[9] = target: T5, Rac GTPase-activating protein 1 (Homo sapiens, UniProt Q9H0H5); assay: MgcRacGAP GTPase-activating activity inhibitors, confirmation, biochemical, ADP Hunter fluorescence, primary and confirmatory (AID 624330); format: functional
T5 sequence (Q9H0H5 whole entry): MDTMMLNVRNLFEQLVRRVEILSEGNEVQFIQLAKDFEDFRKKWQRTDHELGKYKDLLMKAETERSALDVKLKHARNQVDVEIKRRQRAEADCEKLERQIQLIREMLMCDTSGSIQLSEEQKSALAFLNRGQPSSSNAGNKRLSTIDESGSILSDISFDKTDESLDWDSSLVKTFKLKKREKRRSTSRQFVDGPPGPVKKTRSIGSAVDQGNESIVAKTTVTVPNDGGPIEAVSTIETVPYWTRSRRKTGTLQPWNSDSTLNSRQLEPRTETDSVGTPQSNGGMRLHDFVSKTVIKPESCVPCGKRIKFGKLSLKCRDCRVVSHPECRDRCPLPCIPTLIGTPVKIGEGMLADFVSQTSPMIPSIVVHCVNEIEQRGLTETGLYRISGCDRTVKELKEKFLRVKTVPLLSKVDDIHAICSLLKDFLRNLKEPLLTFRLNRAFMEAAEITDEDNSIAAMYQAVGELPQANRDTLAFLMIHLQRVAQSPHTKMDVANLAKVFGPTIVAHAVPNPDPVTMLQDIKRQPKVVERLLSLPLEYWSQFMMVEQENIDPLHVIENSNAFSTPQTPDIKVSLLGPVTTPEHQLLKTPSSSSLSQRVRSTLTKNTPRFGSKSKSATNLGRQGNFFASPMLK

Compound | GI50 (P388/ADR) | GI50 (SN12K1) | GI50 (P388) | IC50 [4] | further results
CC12CCC3C(CCC4=CC(O)CCC43C=O)C1(O)CCC2c1ccc(=O)oc1 (centres undefined) | 0.21 µM (active) | 0.05 µM (active) | < 0.1 µM (active) | – | –
CC(=O)c1cccc(NC(=O)COc2cc3oc(=O)c(CC(C)O)c(C)c3cc2Cl)c1 (centres undefined) | – | – | – | – | IC50 [1]: 12.5 µM (active)
Cc1ccc(-c2cc(C(=O)NCCCn3ccnc3)c3cc(Br)ccc3n2)o1 | – | – | – | – | IC50 [2]: 3.07 µM (not active); IC50 [3]: 11.5 µM (active)
CC1CCCN(C(=O)c2sc3cc([N+](=O)[O-])ccc3c2Cl)C1 (centres undefined) | – | – | – | 7.61 µM (active) | AC50 (Cytochrome P450 1A2): 15.8 µM (inconclusive); AC50 (Cytochrome P450 3A4): 17.8 µM (inconclusive)
CC(/C=N/NC(=O)c1cc(-c2ccc3ccccc3c2)[nH]n1)=C\c1ccco1 | – | – | – | – | CC50 [5]: 37.2 µM (active); IC50 [2]: 4.1 µM (active)
CCN(CC)c1ccc(NC(=O)c2ccccc2OCC(=O)OC)cc1 | – | – | – | – | IC50 [2]: 6.35 µM (not active)
CCNCCCCNCC | > 3750 µM (inactive) | > 3750 µM (inactive) | 1560 µM (inactive) | – | –
NC(=O)c1[nH]nc(C2OC(CO)C(O)C2O)c1O (centres undefined) | 0.5 µM (active) | 0.561 µM (active) | 0.5 µM (active) | – | –
CCCCc1ccc(NC(=O)C2CCCO2)cc1 (centres undefined) | – | – | – | 13.4 µM (not active) | –
Cc1cc([N+](=O)[O-])c(-c2ccc(/C=N/n3cnnc3)o2)cc1Cl | – | – | – | 1.59 µM (not active) | –
NC(Cc1cc(I)c(O)c(I)c1)C(=O)O (centres undefined) | 21.3 µM (inactive) | 169 µM (inactive) | 21.6 µM (inactive) | – | –
SC1=NC[C@H](Cc2cccc3ccccc23)N1CC1CCCCC1 | – | – | – | > 50 µM (not active) | –
O=C(CCN1C(=O)/C(=C/c2ccc(F)cc2)SC1=S)Nc1cc([N+](=O)[O-])ccc1O | – | – | – | – | IC50 [1]: 7.68 µM (active)
COc1ccc2nc3c(C(=O)NCCN(C)C)cccc3cc2c1 | 0.652 µM (active) | 0.944 µM (active) | 0.305 µM (active) | – | –
CCNc1nc(NCC)nc(C(=O)NN)n1 | – | – | – | – | IC50 [2]: 2.32 µM (active)
N#C/C(=C/c1ccc(-c2ccc(C(=O)O)c(Cl)c2)o1)C(=O)NCC1CCCO1 (centres undefined) | – | – | – | – | IC50 [1]: 33.2 µM (active)
CC1(C)N=C(N)N=C(N)N1c1ccc(CCCCc2ccc(S(=O)(=O)F)cc2Cl)c(Cl)c1 | 0.369 µM (active) | 0.979 µM (active) | 0.05 µM (active) | – | –
COc1ccc(CNc2ccc([N+](=O)[O-])cc2C)cc1 | – | – | – | 3.81 µM (not active) | CC50 [6]: 35 µM (active)
O=C(/C=C/c1cccs1)N1CCOCC1 | – | – | – | > 50 µM (not active) | –
CCCNC(=O)C(C)C1CCC2(C)C=CC(=O)C(C)=C2C1O (centres undefined) | > 100 µM (inactive) | > 100 µM (inactive) | > 100 µM (inactive) | – | –
c1ccc(N2CCN(c3ncnc4scc(-c5cccs5)c34)CC2)cc1 | – | – | – | 1.1 µM (not active) | EC50 [7]: 56.8 µM (active); EC50 [8]: 71.5 µM (active)
CCn1c(C)cc(C)[n+]1-c1ccccc1 | – | – | – | – | IC50 [1]: 13.2 µM (active)
O=C(C1CC1)N1CCc2cc(Br)cc(S(=O)(=O)NC3CCCCC3)c21 | – | – | – | > 50 µM (not active) | –
C[C@H]1COC(c2ccccn2)=N1 | > 100 µM (inactive) | > 100 µM (inactive) | > 100 µM (inactive) | – | –
CCOc1cc(/C=C(\C#N)c2n[nH]c(N)c2C#N)ccc1O | – | – | – | – | IC50 [2]: 5.24 µM (active); IC50 [9]: 17.1 µM (active)
Cc1noc(NS(=O)(=O)c2ccc(NC(=O)c3ccc(N4C(=O)c5ccccc5C4=O)cc3)cc2)c1C | – | – | – | 4.9 µM (not active) | –
[N-]=[N+]=CC(=O)CCC(NC(=O)C(CCC(=O)C=[N+]=[N-])NC(=O)CCC(N)C(=O)O)C(=O)O (centres undefined) | > 100 µM (inactive) | > 100 µM (inactive) | > 100 µM (inactive) | – | –
CN1C(=O)c2ccc(C(=O)NCc3ccc4c(c3)OCO4)cc2C1=O | – | – | – | 23.2 µM (not active) | –
